Assay: xn = mol fraction of the nth substance listed
Settings: 101 kPa, Liquid; for viscosity: Capillary tube (Ostwald / Ubbelohde) method; for speed of sound: Frequency=3 MHz, Linear variable-path acoustic interferometer

Cc1ccccc1C [1,2-dimethylbenzene] + C1COCCO1
Settings | speed of sound [m/s] | viscosity [mPa·s]
293.15 K, x2 = 0 | 1367.7 | 0.8066
293.15 K, x2 = 0.0672 | 1361.7 | 0.8314
293.15 K, x2 = 0.1391 | 1355.5 | 0.8598
293.15 K, x2 = 0.2103 | 1350 | 0.8896
293.15 K, x2 = 0.2853 | 1345.3 | 0.9224
293.15 K, x2 = 0.3543 | 1341.7 | 0.9541
293.15 K, x2 = 0.4293 | 1338.8 | 0.9899
293.15 K, x2 = 0.5092 | 1336.9 | 1.03
293.15 K, x2 = 0.581 | 1336.5 | 1.067
293.15 K, x2 = 0.6518 | 1337.4 | 1.104
293.15 K, x2 = 0.7248 | 1339.8 | 1.144
293.15 K, x2 = 0.7888 | 1343.5 | 1.18
293.15 K, x2 = 0.8595 | 1349.3 | 1.221
293.15 K, x2 = 0.9298 | 1357.1 | 1.263
298.15 K, x2 = 0 | 1347.5 | 0.7576
298.15 K, x2 = 0.0672 | 1341.5 | 0.7791
298.15 K, x2 = 0.1391 | 1335.1 | 0.8033
298.15 K, x2 = 0.2103 | 1329.6 | 0.829
298.15 K, x2 = 0.2853 | 1324.8 | 0.8576
298.15 K, x2 = 0.3543 | 1321 | 0.8851
298.15 K, x2 = 0.4293 | 1317.9 | 0.9162
298.15 K, x2 = 0.5092 | 1315.9 | 0.9509
298.15 K, x2 = 0.581 | 1315.4 | 0.9833
298.15 K, x2 = 0.6518 | 1316.2 | 1.016
298.15 K, x2 = 0.7248 | 1318.3 | 1.052
298.15 K, x2 = 0.7888 | 1321.9 | 1.083
298.15 K, x2 = 0.8595 | 1327.4 | 1.12
298.15 K, x2 = 0.9298 | 1334.9 | 1.157
303.15 K, x2 = 0 | 1329.4 | 0.7132
303.15 K, x2 = 0.0672 | 1323 | 0.7321
303.15 K, x2 = 0.1391 | 1316.5 | 0.7527
303.15 K, x2 = 0.2103 | 1311 | 0.7747
303.15 K, x2 = 0.2853 | 1306 | 0.7992
303.15 K, x2 = 0.3543 | 1302 | 0.823
303.15 K, x2 = 0.4293 | 1298.6 | 0.8502
303.15 K, x2 = 0.5092 | 1296.3 | 0.8806
303.15 K, x2 = 0.581 | 1295.5 | 0.909
303.15 K, x2 = 0.6518 | 1296 | 0.9382
303.15 K, x2 = 0.7248 | 1298 | 0.9693
303.15 K, x2 = 0.7888 | 1301.3 | 0.9977
303.15 K, x2 = 0.8595 | 1306.5 | 1.03
303.15 K, x2 = 0.9298 | 1313.7 | 1.063
308.15 K, x2 = 0 | 1313.3 | 0.669
308.15 K, x2 = 0.0672 | 1306.3 | 0.6862
308.15 K, x2 = 0.1391 | 1299.9 | 0.7045
308.15 K, x2 = 0.2103 | 1293.9 | 0.724
308.15 K, x2 = 0.2853 | 1288.5 | 0.746
308.15 K, x2 = 0.3543 | 1284.3 | 0.7675
308.15 K, x2 = 0.4293 | 1280.4 | 0.792
308.15 K, x2 = 0.5092 | 1277.8 | 0.8194
308.15 K, x2 = 0.581 | 1276.7 | 0.8452
308.15 K, x2 = 0.6518 | 1276.8 | 0.8715
308.15 K, x2 = 0.7248 | 1278.4 | 0.8997
308.15 K, x2 = 0.7888 | 1281.2 | 0.9256
308.15 K, x2 = 0.8595 | 1285.9 | 0.9546
308.15 K, x2 = 0.9298 | 1292.5 | 0.9846
313.15 K, x2 = 0 | 1298.5 | 0.6315
313.15 K, x2 = 0.0672 | 1291 | 0.647
313.15 K, x2 = 0.1391 | 1284 | 0.6637
313.15 K, x2 = 0.2103 | 1277.8 | 0.6813
313.15 K, x2 = 0.2853 | 1272.1 | 0.7012
313.15 K, x2 = 0.3543 | 1267.6 | 0.7205
313.15 K, x2 = 0.4293 | 1263.5 | 0.7428
313.15 K, x2 = 0.5092 | 1260.5 | 0.7677
313.15 K, x2 = 0.581 | 1259 | 0.7912
313.15 K, x2 = 0.6518 | 1258.6 | 0.8152
313.15 K, x2 = 0.7248 | 1259.6 | 0.8408
313.15 K, x2 = 0.7888 | 1262 | 0.8642
313.15 K, x2 = 0.8595 | 1266 | 0.8906
313.15 K, x2 = 0.9298 | 1271.8 | 0.9176
318.15 K, x2 = 0 | 1285.2 | 0.5972
318.15 K, x2 = 0.0672 | 1277.2 | 0.6114
318.15 K, x2 = 0.1391 | 1269.7 | 0.6267
318.15 K, x2 = 0.2103 | 1263 | 0.6427
318.15 K, x2 = 0.2853 | 1256.9 | 0.661
318.15 K, x2 = 0.3543 | 1252.1 | 0.6786
318.15 K, x2 = 0.4293 | 1247.7 | 0.699
318.15 K, x2 = 0.5092 | 1244.1 | 0.7218
318.15 K, x2 = 0.581 | 1242.1 | 0.743
318.15 K, x2 = 0.6518 | 1241.3 | 0.7649
318.15 K, x2 = 0.7248 | 1241.7 | 0.7884
318.15 K, x2 = 0.7888 | 1243.4 | 0.8098
318.15 K, x2 = 0.8595 | 1246.6 | 0.834
318.15 K, x2 = 0.9298 | 1251.6 | 0.859

Source: the NIST ThermoML archive (doi:10.1016/j.jct.2017.01.016)
